{
  "source": "ChEMBL document CHEMBL6096698",
  "about": "“Discovery of a Selective and Orally Bioavailable RET Degrader with Effectiveness in Various Mutations” (J Med Chem, 2025)",
  "key": {"[1]": {"tested_on": "HeLa", "experiment": "Cytotoxicity against human HeLa cells", "type": "functional, cell-based"}, "[2]": {"tested_on": "BaF3", "experiment": "Antiproliferative activity against mouse BaF3 cells stably expressing CCDC6-RET G810C mutant incubated for 72 hrs by CCK8 assay", "type": "functional, cell-based", "conditions": "BaF3, 72 h"}, "[3]": {"experiment": "Tmax in Sprague-Dawley rat at 10 mg/kg, po measured for 24 hrs by LC-MS/MS analysis", "type": "ADME, organism-based", "conditions": "in vivo"}, "[4]": {"experiment": "Induction of apoptosis in mouse BaF3 cells stably expressing KIF5B-RET G810C mutant assessed as apoptotic cells at 10 nM incubated for 48 hrs by Annexin V-FITC/PI staining based flow cytometry (reference value: 6.7 %)", "type": "functional"}, "[5]": {"experiment": "Induction of apoptosis in mouse BaF3 cells stably expressing KIF5B-RET G810C mutant assessed as late apoptotic cells at 20 nM incubated for 48 hrs by Annexin V-FITC/PI staining based flow cytometry (reference value: 5.99 %)", "type": "functional"}, "[6]": {"experiment": "Induction of apoptosis in mouse BaF3 cells stably expressing KIF5B-RET G810C mutant assessed as necrotic cells at 10 nM incubated for 48 hrs by Annexin V-FITC/PI staining based flow cytometry (reference value: 0.94 %)", "type": "functional"}, "[7]": {"experiment": "Induction of apoptosis in mouse BaF3 cells stably expressing KIF5B-RET G810C mutant assessed as viable cells at 40 nM incubated for 48 hrs by Annexin V-FITC/PI staining based flow cytometry (reference value: 92.21 %)", "type": "functional", "conditions": "read-out: Activity"}, "[8]": {"experiment": "Induction of apoptosis in mouse BaF3 cells stably expressing KIF5B-RET G810C mutant assessed as viable cells at 10 nM incubated for 48 hrs by Annexin V-FITC/PI staining based flow cytometry (reference value: 92.21 %)", "type": "functional", "conditions": "read-out: Activity"}, "[9]": {"experiment": "Induction of apoptosis in mouse BaF3 cells stably expressing KIF5B-RET G810C mutant assessed as early apoptotic cells at 20 nM incubated for 48 hrs by Annexin V-FITC/PI staining based flow cytometry (reference value: 0.86 %)", "type": "functional"}, "[10]": {"tested_on": "BaF3", "experiment": "PROTAC activity at CRBN/KIF5B-RET (unknown origin) expressed in mouse BaF3 cells assessed as induction of RET degradation at 1 to 100 nM incubated for 24 hrs by immunoblot analysis relative to control", "type": "cell-based", "conditions": "dose 1-100 nM"}, "[11]": {"tested_on": "BaF3", "experiment": "Cytotoxicity against mouse BaF3 cells", "type": "functional, cell-based"}, "[12]": {"experiment": "Tmax in Sprague-Dawley rat at 1 mg/kg, iv measured for 24 hrs by LC-MS/MS analysis", "type": "ADME, organism-based", "conditions": "in vivo"}, "[13]": {"experiment": "Induction of apoptosis in mouse BaF3 cells stably expressing KIF5B-RET G810C mutant assessed as necrotic cells at 20 nM incubated for 48 hrs by Annexin V-FITC/PI staining based flow cytometry (reference value: 0.94 %)", "type": "functional"}, "[14]": {"experiment": "Induction of apoptosis in mouse BaF3 cells stably expressing KIF5B-RET G810C mutant assessed as apoptotic cells at 40 nM incubated for 48 hrs by Annexin V-FITC/PI staining based flow cytometry (reference value: 6.7 %)", "type": "functional"}, "[15]": {"tested_on": "BaF3", "experiment": "Antiproliferative activity against mouse BaF3 cells stably expressing KIF5B-RET G810C mutant incubated for 72 hrs by CCK8 assay", "type": "functional, cell-based", "conditions": "BaF3, 72 h"}, "[16]": {"tested_on": "BaF3", "experiment": "Antiproliferative activity against mouse BaF3 cells stably expressing KIF5B-RET G810R mutant incubated for 72 hrs by CCK8 assay", "type": "functional, cell-based", "conditions": "BaF3, 72 h"}, "[17]": {"tested_on": "BaF3", "experiment": "Antitumor activity against mouse BaF3 cells stably expressing KIF5B-RET G810C mutant implanted in BALB/c nu/nu mouse at 10 mg/kg, po bid treated for 10 days relative to control", "type": "functional", "conditions": "BaF3, 240 h, time 10 day, read-out: TGI"}, "[18]": {"experiment": "AUC (0 to infinity) in Sprague-Dawley rat at 1 mg/kg, iv measured for 24 hrs by LC-MS/MS analysis", "type": "ADME, organism-based", "conditions": "in vivo"}, "[19]": {"tested_on": "Kinesin-1 heavy chain/ Tyrosine-protein kinase receptor RET (Homo sapiens), P07949+P33176 [G810C]", "experiment": "In vivo PROTAC activity at CRBN/KIF5B-RET G810C mutant (unknown origin) expressed in mouse BaF3 cells implanted in BALB/c nu/nu mouse assessed as induction of RET G810C mutant degradation at 10 mg/kg, po qd treated for 10 days by Western blot analysis", "type": "functional, organism-based", "conditions": "time 10.0 day"}, "[20]": {"tested_on": "BaF3", "experiment": "Antiproliferative activity against mouse BaF3 cells stably expressing KIF5B-RET G810S mutant incubated for 72 hrs by CCK8 assay", "type": "functional, cell-based", "conditions": "BaF3, 72 h"}, "[21]": {"experiment": "Cmax in Sprague-Dawley rat at 10 mg/kg, po measured for 24 hrs by LC-MS/MS analysis", "type": "ADME, organism-based", "conditions": "in vivo"}, "[22]": {"tested_on": "BaF3", "experiment": "Antiproliferative activity against mouse BaF3 cells stably expressing KIF5B-RET V804M mutant incubated for 72 hrs by CCK8 assay", "type": "functional, cell-based", "conditions": "BaF3, 72 h"}, "[23]": {"tested_on": "BaF3", "experiment": "Antiproliferative activity against mouse BaF3 cells stably expressing KIF5B-RET incubated for 72 hrs by CCK8 assay", "type": "functional, cell-based", "conditions": "BaF3, 72 h"}, "[24]": {"experiment": "Cmax in Sprague-Dawley rat at 1 mg/kg, iv measured for 24 hrs by LC-MS/MS analysis", "type": "ADME, organism-based", "conditions": "in vivo"}, "[25]": {"tested_on": "BaF3", "experiment": "PROTAC activity at CRBN/KIF5B-RET G810C mutant (unknown origin) expressed in mouse BaF3 cells assessed as decrease in Shc activation incubated for 24 hrs by immunoblot analysis", "type": "cell-based", "conditions": "dose 1-50 nM"}, "[26]": {"experiment": "PROTAC activity at CRBN/KIF5B-RET G810C mutant (unknown origin) expressed in mouse BaF3 cells assessed as induction of RET G810C mutant degradation incubated for 24 hrs by immunoblot analysis", "type": "cell-based", "conditions": "BaF3, 24 h"}, "[27]": {"experiment": "Cytotoxicity against human HEK293 cells", "type": "toxicity, cell-based"}, "[28]": {"experiment": "Induction of apoptosis in mouse BaF3 cells stably expressing KIF5B-RET G810C mutant assessed as necrotic cells at 40 nM incubated for 48 hrs by Annexin V-FITC/PI staining based flow cytometry (reference value: 0.94 %)", "type": "functional"}, "[29]": {"tested_on": "HL-60", "experiment": "Cytotoxicity against human HL-60 cells", "type": "functional, cell-based"}, "[30]": {"tested_on": "Kinesin-1 heavy chain/ Tyrosine-protein kinase receptor RET (Homo sapiens), P07949+P33176 [G810C]", "experiment": "In vivo PROTAC activity at CRBN/KIF5B-RET G810C mutant (unknown origin) expressed in mouse BaF3 cells implanted in BALB/c nu/nu mouse assessed as induction of RET G810C mutant degradation at 10 mg/kg, po bid treated for 10 days by Western blot analysis", "type": "functional, organism-based", "conditions": "time 10.0 day"}, "[31]": {"molecular_target": "Proto-oncogene tyrosine-protein kinase receptor Ret (Homo sapiens, UniProt P07949)", "sequence (P07949 whole entry)": "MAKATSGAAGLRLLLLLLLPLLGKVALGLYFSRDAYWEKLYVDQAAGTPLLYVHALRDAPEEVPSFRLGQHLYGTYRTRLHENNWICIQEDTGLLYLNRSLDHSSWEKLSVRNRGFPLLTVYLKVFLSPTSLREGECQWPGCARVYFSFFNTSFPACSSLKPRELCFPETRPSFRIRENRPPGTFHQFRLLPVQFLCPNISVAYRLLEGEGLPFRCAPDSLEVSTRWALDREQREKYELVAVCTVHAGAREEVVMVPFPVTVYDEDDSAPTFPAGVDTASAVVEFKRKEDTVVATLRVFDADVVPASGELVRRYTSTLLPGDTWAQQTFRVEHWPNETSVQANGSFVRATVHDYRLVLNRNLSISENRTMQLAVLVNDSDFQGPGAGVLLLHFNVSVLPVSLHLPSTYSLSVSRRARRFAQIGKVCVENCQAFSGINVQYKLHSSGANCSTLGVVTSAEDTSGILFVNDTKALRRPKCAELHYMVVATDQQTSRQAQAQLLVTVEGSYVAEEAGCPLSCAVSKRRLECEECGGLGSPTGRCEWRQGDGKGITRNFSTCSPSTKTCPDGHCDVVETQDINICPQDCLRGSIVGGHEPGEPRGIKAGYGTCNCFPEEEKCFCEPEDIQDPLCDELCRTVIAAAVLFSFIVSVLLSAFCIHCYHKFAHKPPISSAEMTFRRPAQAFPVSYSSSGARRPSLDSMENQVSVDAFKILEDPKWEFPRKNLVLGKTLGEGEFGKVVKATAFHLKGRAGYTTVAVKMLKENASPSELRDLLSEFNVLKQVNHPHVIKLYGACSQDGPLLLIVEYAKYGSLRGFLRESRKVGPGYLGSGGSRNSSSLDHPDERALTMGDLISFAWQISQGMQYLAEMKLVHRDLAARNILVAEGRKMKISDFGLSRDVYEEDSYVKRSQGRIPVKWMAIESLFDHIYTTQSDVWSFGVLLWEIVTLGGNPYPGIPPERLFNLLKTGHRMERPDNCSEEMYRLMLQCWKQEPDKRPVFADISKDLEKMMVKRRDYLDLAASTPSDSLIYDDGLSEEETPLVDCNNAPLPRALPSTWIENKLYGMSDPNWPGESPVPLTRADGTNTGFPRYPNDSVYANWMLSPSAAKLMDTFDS", "experiment": "Inhibition of RET (unknown origin) at 10 nM by kinase profiling analysis relative to control"}, "[32]": {"tested_on": "BaF3", "experiment": "PROTAC activity at CRBN/KIF5B-RET (unknown origin) expressed in mouse BaF3 cells assessed as induction of RET degradation at 10 nM incubated for 24 hrs by immunoblot analysis relative to control", "type": "cell-based"}, "[33]": {"experiment": "PROTAC activity at CRBN/KIF5B-RET (unknown origin) expressed in mouse BaF3 cells assessed as induction of RET degradation incubated for 24 hrs by immunoblot analysis", "type": "cell-based", "conditions": "BaF3, 24 h"}, "[34]": {"experiment": "Half life in Sprague-Dawley rat at 10 mg/kg, po measured for 24 hrs by LC-MS/MS analysis", "type": "ADME, organism-based", "conditions": "in vivo"}, "[35]": {"tested_on": "A549", "experiment": "Cytotoxicity against human A549 cells", "type": "functional, cell-based"}},
  "note": "Active and inactive are the calls of the source. The calls are words filed in the database; no cut-off is given here.",
  "data": [
    {"compound": "COc1ccc(CN2C3CC2CN(c2ccc(-c4cc(N5CCC(N6CCN(CCCC#Cc7cccc8c7CN(C7CCC(=O)NC7=O)C8=O)CC6)CC5)cn5ncc(C#N)c45)cn2)C3)cn1", "note": "(stereo not given)", "values": [
      {"measurement": "IC50", "setting": "[1]", "result": "> 5000", "unit": "nM"},
      {"measurement": "IC50", "setting": "[2]", "result": 6.5, "unit": "nM"},
      {"measurement": "Tmax", "setting": "[3]", "result": 2, "unit": "h"},
      {"measurement": "Activity", "setting": "[4]", "result": 34.1, "unit": "%"},
      {"measurement": "Activity", "setting": "[5]", "result": 17.41, "unit": "%"},
      {"measurement": "Activity", "setting": "[6]", "result": 1.45, "unit": "%"},
      {"measurement": "viability at 0.04 µM", "setting": "[7]", "result": 27.9, "unit": "%"},
      {"measurement": "viability at 0.01 µM", "setting": "[8]", "result": 64.3, "unit": "%"},
      {"measurement": "Activity", "setting": "[9]", "result": 38.21, "unit": "%"},
      {"measurement": "Emax", "setting": "[10]", "result": 92, "unit": "%"},
      {"measurement": "IC50", "setting": "[11]", "result": "> 5000", "unit": "nM"},
      {"measurement": "Tmax", "setting": "[12]", "result": 4.98, "unit": "min"},
      {"measurement": "Activity", "setting": "[13]", "result": 1.01, "unit": "%"},
      {"measurement": "Activity", "setting": "[14]", "result": 71.3, "unit": "%"},
      {"measurement": "IC50", "setting": "[15]", "result": 5.3, "unit": "nM"},
      {"measurement": "IC50", "setting": "[16]", "result": 165, "unit": "nM"},
      {"measurement": "inhibition in vivo at 10 mg/kg", "setting": "[17]", "result": 85.1, "unit": "%"},
      {"measurement": "AUC(0-inf)", "setting": "[18]", "result": 295, "unit": "ng·h/mL"},
      {"measurement": "Activity", "setting": "[19]", "result": "Active"},
      {"measurement": "IC50", "setting": "[20]", "result": 22.6, "unit": "nM"},
      {"measurement": "Cmax", "setting": "[21]", "result": 161, "unit": "ng/mL"},
      {"measurement": "IC50", "setting": "[22]", "result": 5.2, "unit": "nM"},
      {"measurement": "IC50", "setting": "[23]", "result": 2.6, "unit": "nM"},
      {"measurement": "Cmax", "setting": "[24]", "result": 121, "unit": "ng/mL"},
      {"measurement": "Activity", "setting": "[25]", "result": "Dose-dependent-effect"},
      {"measurement": "DC50", "setting": "[26]", "result": 11.7, "unit": "nM"},
      {"measurement": "IC50", "setting": "[27]", "result": "> 5000", "unit": "nM"},
      {"measurement": "Activity", "setting": "[28]", "result": 0.54, "unit": "%"},
      {"measurement": "IC50", "setting": "[29]", "result": "> 5000", "unit": "nM"},
      {"measurement": "Activity", "setting": "[30]", "result": "Active"},
      {"measurement": "inhibition", "setting": "[31]", "result": "> 50", "unit": "%"},
      {"measurement": "Activity", "setting": "[32]", "result": 65, "unit": "%"},
      {"measurement": "DC50", "setting": "[33]", "result": 5.6, "unit": "nM"},
      {"measurement": "half-life", "setting": "[34]", "result": 8.21, "unit": "h"},
      {"measurement": "IC50", "setting": "[35]", "result": "> 5000", "unit": "nM"}
    ]}
  ]
}
